Test results taken from ChEMBL document CHEMBL1909046, “DrugMatrix in vitro pharmacology data”.
pIC50, pKi: −log10 of the molar value.

Columns and labels:
[1] = DRUGMATRIX: Imidazoline I2, Central radioligand binding (ligand: [3H] Idazoxan); type: cell membranes, Rattus norvegicus, Wistar, Cerebral cortex, Membrane; conditions: Not Active = under 50% inhibition at 10 µM; for pIC50: read-out: IC50; for pKi: read-out: Ki
Cytochrome P450 2C19 = Cytochrome P450 2C19 (Homo sapiens, UniProt P33261); conditions: bti-tn-5b1-4; also: in other assays of this panel Not Active means under 50% inhibition at 10 µM
[2] = target: T1, Muscarinic acetylcholine receptor M2 (Homo sapiens, UniProt P08172); type: cell membranes, CHO-K1, Membrane; conditions: for IC50: cho-k1; for pIC50: read-out: IC50; for pKi: read-out: Ki; as to all read-outs here: in other assays of this panel Not Active means under 50% inhibition at 10 µM
T1 sequence (P08172 whole entry): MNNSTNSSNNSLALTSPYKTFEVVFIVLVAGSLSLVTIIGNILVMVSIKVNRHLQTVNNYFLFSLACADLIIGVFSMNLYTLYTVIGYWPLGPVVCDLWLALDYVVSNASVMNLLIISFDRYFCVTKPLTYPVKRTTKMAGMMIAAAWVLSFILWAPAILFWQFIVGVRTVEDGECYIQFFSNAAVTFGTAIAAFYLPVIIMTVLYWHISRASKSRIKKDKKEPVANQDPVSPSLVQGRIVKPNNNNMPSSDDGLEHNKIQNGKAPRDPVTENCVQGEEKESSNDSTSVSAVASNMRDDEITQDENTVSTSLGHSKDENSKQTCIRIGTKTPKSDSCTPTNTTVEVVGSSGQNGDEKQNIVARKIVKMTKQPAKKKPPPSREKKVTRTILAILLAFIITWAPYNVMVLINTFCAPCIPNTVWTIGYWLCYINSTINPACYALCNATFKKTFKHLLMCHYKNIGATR

[3] = target: T2, Alpha-1D adrenergic receptor (Homo sapiens, UniProt P25100); type: cell membranes, HEK293, Membrane; conditions: for IC50: hek293; for pIC50: read-out: IC50; for pKi: read-out: Ki; as to all read-outs here: in other assays of this panel Not Active means under 50% inhibition at 10 µM
T2 sequence (P25100 whole entry): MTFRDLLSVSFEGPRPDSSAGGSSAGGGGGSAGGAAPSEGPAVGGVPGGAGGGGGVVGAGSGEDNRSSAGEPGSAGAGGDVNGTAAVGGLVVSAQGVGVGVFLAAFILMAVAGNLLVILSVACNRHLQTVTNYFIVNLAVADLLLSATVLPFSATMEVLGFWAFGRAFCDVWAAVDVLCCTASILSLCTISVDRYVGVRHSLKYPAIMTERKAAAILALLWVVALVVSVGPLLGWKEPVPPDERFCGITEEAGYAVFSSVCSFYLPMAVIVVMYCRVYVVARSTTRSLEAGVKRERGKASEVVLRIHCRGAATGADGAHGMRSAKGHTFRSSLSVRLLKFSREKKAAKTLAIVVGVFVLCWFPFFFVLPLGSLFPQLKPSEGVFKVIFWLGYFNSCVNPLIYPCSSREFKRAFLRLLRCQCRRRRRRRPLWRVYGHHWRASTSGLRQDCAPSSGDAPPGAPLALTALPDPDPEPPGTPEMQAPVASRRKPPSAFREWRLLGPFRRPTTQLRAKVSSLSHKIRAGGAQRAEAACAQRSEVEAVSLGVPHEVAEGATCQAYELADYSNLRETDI

[4] = target: 5-hydroxytryptamine receptor 6 (Homo sapiens, UniProt P50406); type: cell membranes, HeLa, Membrane; conditions: for IC50: hela; as to all read-outs here: in other assays of this panel Not Active means under 50% inhibition at 10 µM
Sequence of 5-hydroxytryptamine receptor 6 (P50406 whole entry): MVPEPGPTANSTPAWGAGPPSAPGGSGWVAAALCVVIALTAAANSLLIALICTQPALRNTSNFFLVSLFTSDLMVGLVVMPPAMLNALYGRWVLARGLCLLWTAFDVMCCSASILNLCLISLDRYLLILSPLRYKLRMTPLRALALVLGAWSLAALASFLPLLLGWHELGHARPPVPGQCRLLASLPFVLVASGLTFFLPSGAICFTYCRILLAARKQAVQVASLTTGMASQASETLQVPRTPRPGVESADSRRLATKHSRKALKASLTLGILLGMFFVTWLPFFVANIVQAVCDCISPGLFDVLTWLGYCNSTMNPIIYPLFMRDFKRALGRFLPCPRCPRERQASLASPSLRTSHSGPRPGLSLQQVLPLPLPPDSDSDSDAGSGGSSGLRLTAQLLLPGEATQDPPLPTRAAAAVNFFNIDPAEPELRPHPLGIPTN

Sequence of Cytochrome P450 2C19 (P33261 whole entry): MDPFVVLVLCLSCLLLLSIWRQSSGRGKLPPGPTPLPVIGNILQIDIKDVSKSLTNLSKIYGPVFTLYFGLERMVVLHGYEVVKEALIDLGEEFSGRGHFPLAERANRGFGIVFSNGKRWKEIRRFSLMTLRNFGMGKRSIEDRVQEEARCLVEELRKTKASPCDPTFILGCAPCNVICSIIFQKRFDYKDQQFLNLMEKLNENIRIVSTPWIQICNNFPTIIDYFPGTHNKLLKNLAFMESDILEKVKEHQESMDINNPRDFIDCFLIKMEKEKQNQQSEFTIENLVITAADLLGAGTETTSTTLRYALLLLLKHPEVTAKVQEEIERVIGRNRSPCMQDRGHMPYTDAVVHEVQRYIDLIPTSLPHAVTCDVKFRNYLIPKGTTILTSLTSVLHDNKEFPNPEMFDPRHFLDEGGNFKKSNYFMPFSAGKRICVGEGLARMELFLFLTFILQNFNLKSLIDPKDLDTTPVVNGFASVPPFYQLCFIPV

Compound	IC50 [1]	Ki [1]	IC50 (Cytochrome P450 2C19)	Ki (Cytochrome P450 2C19)	IC50 [2]	IC50 [3]	IC50 [4]	pIC50 [1]	pKi [1]	pIC50 [3]	pKi [3]	pIC50 [2]	pKi [2]	pIC50 ([4]; read-out: IC50)	pKi ([4]; read-out: Ki)
CC(C(=O)O)c1ccc2oc(-c3ccc(Cl)cc3)nc2c1 (stereo not given) [BENOXAPROFEN]	Not Active	Not Active	Not Active	Not Active	Not Active	Not Active	Not Active	–	–	–	–	–	–	–	–
COc1ccc2cc3[n+](cc2c1OC)CCc1cc2c(cc1-3)OCO2.[Cl-] [BERBERINE CHLORIDE]	–	–	Not Active	Not Active	Not Active	Not Active	Not Active	5.89	6.07	–	–	–	–	–	–
O=C(O)CCNC(=O)c1ccccc1 [BETAMIPRON]	Not Active	Not Active	Not Active	Not Active	Not Active	Not Active	Not Active	–	–	–	–	–	–	–	–
CC(=O)Oc1ccc(C(c2ccc(OC(C)=O)cc2)c2ccccn2)cc1 [BISACODYL]	Not Active	Not Active	Not Active	Not Active	Not Active	Not Active	Not Active	–	–	–	–	–	–	–	–
Cc1cc2c(OCC(CNC(C)(C)C)OC(=O)c3ccccc3)cccc2[nH]1 (stereo not given) [BOPINDOLOL]	Not Active	Not Active	Not Active	Not Active	Not Active	Not Active	Not Active	–	–	–	–	–	–	–	–
Brc1c(NC2=NCCN2)ccc2nccnc12 [BRIMONIDINE]	–	–	Not Active	Not Active	Not Active	–	Not Active	7.13	7.31	5.76	6.07	–	–	–	–
CN(C)[C@@H]1C(O)=C(C(N)=O)C(=O)[C@@]2(O)C(O)=C3C(=O)c4c(O)ccc(Cl)c4[C@@](C)(O)[C@H]3C[C@@H]12 [CHLORTETRACYCLINE]	Not Active	Not Active	Not Active	Not Active	Not Active	Not Active	Not Active	–	–	–	–	–	–	–	–
CN/C(=N\CCSCc1nc[nH]c1C)NC#N [CIMETIDINE]	Not Active	Not Active	Not Active	Not Active	Not Active	Not Active	Not Active	–	–	–	–	–	–	–	–
COc1cc(N)c(Cl)cc1C(=O)NC1CCN(CCCOc2ccc(F)cc2)CC1OC (stereo not given) [CISAPRIDE]	Not Active	Not Active	Not Active	Not Active	Not Active	–	Not Active	–	–	6.72	7.03	–	–	–	–
CCC(=O)O[C@]1(C(=O)CCl)[C@@H](C)C[C@H]2[C@@H]3CCC4=CC(=O)C=C[C@]4(C)[C@@]3(F)[C@@H](O)C[C@@]21C [CLOBETASOL PROPIONATE]	Not Active	Not Active	Not Active	Not Active	Not Active	Not Active	Not Active	–	–	–	–	–	–	–	–
O=C1CN=C(c2ccccc2Cl)c2cc([N+](=O)[O-])ccc2N1 [CLONAZEPAM]	Not Active	Not Active	Not Active	Not Active	Not Active	Not Active	Not Active	–	–	–	–	–	–	–	–
C[C@@H]1C[C@H]2[C@@H]3CCC4=CC(=O)C=C[C@]4(C)[C@@]3(F)[C@@H](O)C[C@]2(C)[C@H]1C(=O)CO [DESOXIMETASONE]	Not Active	Not Active	Not Active	Not Active	Not Active	Not Active	Not Active	–	–	–	–	–	–	–	–
CN(C)CC[C@@H](c1ccc(Cl)cc1)c1ccccn1 [DEXCHLORPHENIRAMINE]	–	–	Not Active	Not Active	–	–	Not Active	4.82	4.99	4.47	4.78	5.16	5.60	–	–
C[C@@H]1CC[C@@]2(OC1)O[C@H]1[C@@H](O)[C@H]3[C@@H]4CC[C@H]5C[C@@H](O[C@@H]6O[C@H](CO)[C@H](O[C@@H]7O[C@H](CO)C(O)[C@H](O[C@@H]8OC[C@@H](O)[C@H](O)[C@H]8O)[C@H]7O[C@@H]7O[C@H](CO)[C@H](O)[C@H](O[C@@H]8O[C@H](CO)[C@@H](O)[C@H](O)[C@H]8O)[C@H]7O)[C@H](O)[C@H]6O)[C@H](O)C[C@]5(C)[C@H]4CC[C@]3(C)[C@H]1[C@@H]2C (stereo not given in full) [DIGITONIN]	Not Active	Not Active	Not Active	Not Active	Not Active	Not Active	Not Active	–	–	–	–	–	–	–	–
OC(CCCN1CCCCC1)(c1ccccc1)c1ccccc1 [DIPHENIDOL]	Not Active	Not Active	Not Active	Not Active	–	Not Active	Not Active	–	–	–	–	6.11	6.56	–	–
C[C@H]1O[C@@H](n2cc(F)c(=O)[nH]c2=O)[C@H](O)[C@@H]1O [DOXIFLURIDINE]	Not Active	Not Active	Not Active	Not Active	Not Active	Not Active	Not Active	–	–	–	–	–	–	–	–
Cn1c(=O)c2c(ncn2CC(O)CO)n(C)c1=O (stereo not given) [DYPHYLLINE]	Not Active	Not Active	Not Active	Not Active	Not Active	Not Active	Not Active	–	–	–	–	–	–	–	–
C[C@@H](CO)NC(=O)[C@@H]1C=C2c3cccc4[nH]cc(c34)C[C@H]2N(C)C1 [ERGONOVINE]	–	–	Not Active	Not Active	Not Active	Not Active	–	–	5.91	–	–	–	–	8.49	8.82
COC(=O)CCc1ccc(OCC(O)CNC(C)C)cc1 (stereo not given) [ESMOLOL]	Not Active	Not Active	Not Active	Not Active	Not Active	Not Active	Not Active	–	–	–	–	–	–	–	–
CCC1(C)CC(=O)NC1=O (stereo not given) [ETHOSUXIMIDE]	Not Active	Not Active	Not Active	Not Active	Not Active	Not Active	Not Active	–	–	–	–	–	–	–	–
C#C[C@]1(OC(C)=O)CC[C@H]2[C@@H]3CCC4=C[C@@H](OC(C)=O)CC[C@@H]4[C@H]3CC[C@@]21C [ETHYNODIOL DIACETATE]	Not Active	Not Active	Not Active	Not Active	Not Active	Not Active	Not Active	–	–	–	–	–	–	–	–
C=CCc1ccc(O)c(OC)c1 [EUGENOL]	Not Active	Not Active	Not Active	Not Active	Not Active	Not Active	Not Active	–	–	–	–	–	–	–	–
CC(C(=O)O)c1cccc(Oc2ccccc2)c1 (stereo not given) [FENOPROFEN]	Not Active	Not Active	Not Active	Not Active	Not Active	Not Active	Not Active	–	–	–	–	–	–	–	–
Nc1ccn([C@@H]2O[C@H](CO)[C@@H](O)C2(F)F)c(=O)n1 [GEMCITABINE]	Not Active	Not Active	Not Active	Not Active	Not Active	Not Active	Not Active	–	–	–	–	–	–	–	–
N=C(N)NC(=O)Cc1c(Cl)cccc1Cl [GUANFACINE]	–	–	Not Active	Not Active	Not Active	Not Active	Not Active	7.35	7.52	–	–	–	–	–	–
NNc1nncc2ccccc12 [HYDRALAZINE]	Not Active	Not Active	Not Active	Not Active	Not Active	Not Active	Not Active	–	–	–	–	–	–	–	–
CC(C)NNC(=O)c1ccncc1 [IPRONIAZID]	Not Active	Not Active	Not Active	Not Active	Not Active	Not Active	Not Active	–	–	–	–	–	–	–	–
O=c1cc(N2CCOCC2)oc2c(-c3ccccc3)cccc12 [LY-294002]	Not Active	Not Active	Not Active	Not Active	Not Active	Not Active	Not Active	–	–	–	–	–	–	–	–
NC(=O)C[S+]([O-])C(c1ccccc1)c1ccccc1 (stereo not given) [MODAFINIL]	Not Active	Not Active	Not Active	Not Active	Not Active	Not Active	Not Active	–	–	–	–	–	–	–	–
CCN(CC)CCOCCC1=CCC2CC1C2(C)C (stereo not given) [MYRTECAINE]	Not Active	Not Active	Not Active	Not Active	Not Active	Not Active	Not Active	–	–	–	–	–	–	–	–
